Results reported in US20230087994A1, “TARGETED BIFUNCTIONAL DEGRADERS” (YALE UNIVERSITY, priority 2019, published 2023).

What was measured:
HepG2 cells [1] = assay: MIF-GN3-mediated endocytosis of fluorescently labeled human MIF by HepG2 cells
Description: Human MIF protein was fluorescently labeled with Alexa 488 NHS ester, then incubated with HepG2 cells in the presence of varying levels of MIF-GN3.
Next, inhibitors of various endocytic pathways were utilized to determine if MIF-GN3 mediates MIF endocytosis in a manner consistent with ASGPR (FIG. 132).

HepG2 cells [2] = assay: Subcellular localization of endocytosed MIF protein in HepG2 cells; type: cell-based, human; conditions: 12 hours; FIG. 133
Description: In order to investigate the subcellular localization of endocytosed MIF protein, colocalization studies were performed in HepG2 cells. After 12 hours of MIF-GN mediated endocytosis, several punctae displaying MIF-derived fluorescence were present in each cell.

[3] = Pharmacokinetics of MIF-GN3 in male nude mice; type: in vivo; conditions: one mpk dose
Source text: The ability of MIF-GN3 to mediate the depletion of injected human MIF from serum in mice was studied. First, the pharmacokinetics of the bifunctional molecule were investigated.

mouse MIF = biological target: T1, mouse MIF (Mus musculus, UniProt P34884); assay: Depletion of endogenous mouse MIF in vivo; parameters: species or system mice; conditions: 10 mpk, single dose; FIG. 137
T1 construct: mediate the depletion of endogenous mouse MIF in vivo; from tissue; host or cells: mouse serum (in vivo)
Description: (§1) In order to confirm that mice injected with one or ten mpk MIF-GN3 had received the injection, and that the observed stability of MIF concentrations in MIF-GN3 treated mice was not the result of injection error, 200 μg of α-DNP antibody was coinjected with the MIF protein in this experiment. […] An investigation of the ability of MIF-GN3 to mediate the depletion of endogenous mouse MIF in vivo was next undertaken. Mice were treated with either PBS or 10 mpk of MIF-GN3. […] One possible explanation for this finding is that MIF protein may be synthesized rapidly, and any increase in degradation mediated by MIF-GN3 may not be of a large enough magnitude to impact the protein's level in serum.

PC3 cells = assay: Human prostate cancer PC3 tumor growth in mice; type: in vivo
Description: The ability of MIF-GN3 to mediate the depletion of MIF in a therapeutically relevant disease model was investigated. […] An experiment was conducted to determine whether the bifunctional molecule MIF-GN3 can deplete sufficient human MIF from serum to slow PC3 tumor growth. Mice were injected with an aliquot of PC3 cells, and the size of the resultant tumors as well as the levels of human MIF in serum were monitored over five weeks. […] Five weeks after the initial PC3 cell injection, the first of the mice reached maximal tumor size ([…]) and was sacrificed (FIG. 138). […] The decrease in human MIF levels mediated by MIF-GN3 is consistent with a mechanism of action in which MIF-GN3 mediates the depletion and degradation of circulating MIF protein. While the α-MIF antibody would not necessarily be expected to decrease the levels of human MIF, it is possible that the antibody mediates MIF neutralization in a manner which masks its signal as determined by ELISA. Alternatively, the α-MIF antibody may mediate depletion or degradation of huMIF by some endocytic mechanism. Another possible explanation is that the α-MIF antibody decrease serum levels of active human MIF to such an extent at early time points that PC3 cells proliferate much more slowly, and therefore fewer cells are actively secreting human MIF.
Mice were sacrificed when their tumor volumes reached 1000 mm^3. […] At this same time point, less than 25% of the mice in any other arm had survived.

human MIF [4] = biological target: T2, human MIF (Homo sapiens, UniProt P14174); assay: Depletion of injected recombinant human MIF from serum in mice; type: in vivo; parameters: injected into mice; conditions: for depletion of human MIF protein from serum: 10 mpk, 30 minutes, FIG. 135
T2 sequence (P14174 2-115 limits assumed): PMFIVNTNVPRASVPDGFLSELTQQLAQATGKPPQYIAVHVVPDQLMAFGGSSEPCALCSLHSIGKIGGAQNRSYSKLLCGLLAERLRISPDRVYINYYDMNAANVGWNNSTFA
Description: In vivo human MIF depletion experiments were undertaken to determine whether MIF-GN3 can mediate the depletion of injected recombinant human MIF from serum in mice. Mice were injected with five μg of the human MIF protein. In this experiment, one group of mice was also injected with a single 10 mpk dose of MIF-GN3 along with human MIF protein. It was observed that after four hours, the average level of human MIF in serum in the PBS-treated mice was 1.76 ng/mL (FIG. 134). In mice treated with 10 mpk MIF-GN3, however, the concentration of human MIF in serum was 0.68 ng/mL. One day after the initial injection, human MIF levels had reached background levels for both conditions. […] It was hypothesized that, due to the short half-life of human MIF in serum, investigating human MIF levels at earlier time points may be more informative.
Next, an experiment was performed to determine whether MIF-GN3 could enhance MIF clearance at time points earlier than four hours. Mice were coinjected with recombinant human MIF and 10 mpk MIF-GN3 via either i.p. or i.v. routes. For the PBS control arms, human MIF was injected with PBS. It was observed that in the absence of MIF-GN3, there was a spike in huMIF levels in circulation after 30 minutes (FIG. 135). In the presence of MIF-GN3, however, levels of MIF protein remained low at 30 minutes and no spike in its concentration was observed. By two hours, the levels of human MIF in circulation decreased to background levels. […] In a further experiment, whether an inhibitor of the MIF protein (3w) is able to mediate the protein's depletion from serum was determined. A bifunctional molecule that mediates the depletion of α-DNP antibody from serum was also assayed as a negative control. Neither of these molecules was expected to mediate the formation of a ternary complex between human MIF protein and ASGPR.
as §1

human MIF [5] = biological target: T2, human MIF; assay: Depletion of human MIF from cell culture supernatant (sandwich ELISA); type: cell-based; parameters: host or cells: exogenous protein added to cell culture; conditions: for removal of MIF from supernatant: after 48 hours
Description: The ability of bifunctional MIF-binding molecules to mediate the depletion of human MIF from cell culture was investigated. In these assays, human MIF was present at a concentration of 100 nM, and a sandwich ELISA assay was utilized to measure the concentration of human MIF remaining in the cell culture supernatant. The closely related bifunctional molecules MIF-GN3, MIF-PEG2-GN3, and MIF-PEG4-GN3 were used, as well as the structurally dissimilar molecule MIF-NVS-PEG3-GN3. […] Based on the ease of its synthesis and its efficacy in this experiment, MIF-GN3 was utilized for further studies. It was next investigated whether the MIF inhibitor 3w mediates MIF depletion from cell culture supernatant. […] When cells were treated with 3w, no depletion of exogenous MIF protein was observed after 24 hours (FIG. 128B).

With CC(=O)N[C@H]1[C@H](OCCOCCOCCNC(=O)CCOCC(COCCC(=O)NCCOCCOCCO[C@@H]2O[C@H](CO)[C@H](O)[C@H](O)[C@H]2NC(C)=O)(COCCC(=O)NCCOCCOCCO[C@@H]2O[C@H](CO)[C@H](O)[C@H](O)[C@H]2NC(C)=O)NC(=O)CNC(=O)CCCOc2ccc3nc(-c4cn(-c5ccc(O)c(F)c5)nn4)ccc3c2)O[C@H](CO)[C@H](O)[C@@H]1O [MIF-GN3] the “fluorescence relative to cells not treated with bifunctional molecule” value (HepG2 cells [1]; 10 nM MIF protein, 200 nM MIF-GN3, FIG. 131) was 4 fold, the “MIF uptake compared to lower concentrations” value (HepG2 cells [1]; 5.00 μM MIF-GN3, 100 nM MIF protein) was “slight decrease in MIF uptake” and the “MIF-GN3 concentration of maximal intracellular fluorescence” value (HepG2 cells [1]; highest concentration investigated, FIG. 130) was 1.0 µM. The “colocalization of MIF protein with LAMP2” value (HepG2 cells [2]) was “near-complete colocalization”, the “overlap of MIF punctae with EEA1” value (HepG2 cells [2]) was “did not overlap” and the half-life in serum [3] was 25.8 min. The maximum plasma concentration [3] was 586.87 ng/mL, the “time of maximum plasma concentration” value [3] was 15 min and the “mouse MIF concentrations in serum” value (mouse MIF) was “No significant decrease”. For the same molecule, the PC3 tumor growth (PC3 cells; 1 mpk) was “delay in tumor growth”, the PC3 tumor growth (PC3 cells; 10 mpk) was “not found to decrease tumor growth” and the “human MIF protein in serum” value (PC3 cells; MIF-GN3 at 1 mpk, FIG. 139) was “decreased levels of human MIF protein”. The survival (PC3 cells; eight weeks after the initial PC3 cell injection, MIF-GN3 at 1 mpk, FIG. 140) was 80%, the “depletion of human MIF protein from serum” value (human MIF [4]; i.p.) was “significant depletion” and the “depletion of human MIF protein from serum” value (human MIF [4]; i.v.) was “significant depletion”. The “concentration of human MIF in serum” value (human MIF [4]; four hours, single 10 mpk dose, five μg human MIF (PBS 1.76 ng/mL; difference not significant), FIG. 134) was 0.68 ng/mL, the “human MIF levels in serum” value (human MIF [4]; one mpk, 40 and 60 minute time points, FIG. 136) was “significant decrease” and the “concentration of human MIF in serum” value (human MIF [4]; ten mpk, 40 and 60 minutes, FIG. 136) was “significant decreses”. For the same molecule, the “removal of MIF from supernatant” value (human MIF [5]; 200 nM) was 56.0%, the “removal of MIF from supernatant” value (human MIF [5]; 1 μM) was 67.0% and the “depletion of human MIF from cell culture supernatant” value (human MIF [5]; human MIF 100 nM, 24 hours, FIG. 128A) was “effective at mediating the depletion of human MIF”.
